Experimental data as given in article PMC11243256 (Molecules, 2024).
Like-named read-outs stand apart in the source and are kept apart here.

Tests used:
Test in all cases: microscale thermophoresis
Format in all cases: binding
PYR1 = biological target: T1, PYR1 (Arabidopsis thaliana, UniProt O49686)
T1 construct: NT-647-NHS labelled; 'dimer PYR1' in the docking section
T1 sequence (O49686 1-191): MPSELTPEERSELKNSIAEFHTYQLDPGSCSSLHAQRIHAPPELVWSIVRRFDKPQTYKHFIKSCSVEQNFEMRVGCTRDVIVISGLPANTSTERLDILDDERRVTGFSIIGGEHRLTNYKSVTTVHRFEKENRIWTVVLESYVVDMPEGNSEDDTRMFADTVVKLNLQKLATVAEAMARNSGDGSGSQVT
Description: microscale thermophoresis on PYR1

PYL10 = biological target: T2, PYL10 (Arabidopsis thaliana, UniProt Q8H1R0)
T2 construct: NT-647-NHS labelled; 'monomer PYL10' in the docking section
T2 sequence (Q8H1R0 1-183): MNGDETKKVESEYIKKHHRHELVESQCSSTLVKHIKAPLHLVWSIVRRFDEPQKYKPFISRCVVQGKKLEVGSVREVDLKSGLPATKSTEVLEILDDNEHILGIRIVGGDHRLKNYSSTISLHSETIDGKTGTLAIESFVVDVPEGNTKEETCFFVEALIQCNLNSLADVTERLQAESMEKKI
Description: microscale thermophoresis on PYL10

PYL3 = biological target: T3, PYL3 (Arabidopsis thaliana, UniProt Q9SSM7)
T3 construct: NT-647-NHS labelled
T3 sequence (Q9SSM7 1-209): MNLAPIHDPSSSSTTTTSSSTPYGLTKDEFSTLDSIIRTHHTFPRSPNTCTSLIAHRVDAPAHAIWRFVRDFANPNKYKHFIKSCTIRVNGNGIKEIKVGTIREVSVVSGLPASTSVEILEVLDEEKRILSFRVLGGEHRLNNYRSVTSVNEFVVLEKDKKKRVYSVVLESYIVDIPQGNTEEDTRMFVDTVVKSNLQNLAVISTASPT

PYL6 = biological target: T4, PYL6 (Arabidopsis thaliana, UniProt Q8S8E3)
T4 construct: NT-647-NHS labelled
T4 sequence (Q8S8E3 1-215): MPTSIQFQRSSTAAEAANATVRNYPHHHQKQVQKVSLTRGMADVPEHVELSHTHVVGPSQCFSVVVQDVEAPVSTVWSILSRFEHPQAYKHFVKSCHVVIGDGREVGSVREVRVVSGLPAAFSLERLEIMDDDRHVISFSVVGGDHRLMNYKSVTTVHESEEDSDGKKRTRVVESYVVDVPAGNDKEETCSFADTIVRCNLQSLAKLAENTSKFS
Description: microscale thermophoresis on PYL6

PYL2 = biological target: T5, PYL2 (Arabidopsis thaliana, UniProt O80992)
T5 construct: NT-647-NHS labelled
T5 sequence (O80992 1-190): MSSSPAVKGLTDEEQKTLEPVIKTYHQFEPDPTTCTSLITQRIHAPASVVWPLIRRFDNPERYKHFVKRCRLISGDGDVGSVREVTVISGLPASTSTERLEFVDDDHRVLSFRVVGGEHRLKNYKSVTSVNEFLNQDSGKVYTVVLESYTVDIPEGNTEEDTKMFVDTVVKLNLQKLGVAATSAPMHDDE
Description: microscale thermophoresis on PYL2

[1] = PBS, NT-647-NHS-labelled receptor

Compound | Kd (PYR1) | Kd (PYL10) | Kd (PYL3) | Kd (PYL6) | Kd (PYL2) | Kd (PYR1; [1]) | Kd (PYL10; [1]) | Kd (PYL3; [1]) | Kd (PYL6; [1]) | Kd (PYL2; [1])
CCCCCCOc1ccc2c(c1)C(=O)C(C)(C)CC2(O)/C=C/C(C)=C\C(=O)O (centres unmarked) [APA6] | 121 ± 13.6 µM | 44.9 ± 8.09 µM | 4.09 ± 0.65 µM | 1.62 ± 0.17 µM | 2.91 ± 0.17 µM | – | – | – | – | –
CC(=C/C(=O)O)/C=C/C1(O)CC(C)(C)C(=O)c2cc(OCCCCc3ccccc3)ccc21 (centres unmarked) [APA11] | 59.4 ± 3.41 µM | 17.6 ± 2.11 µM | 3.11 ± 0.4 µM | 0.9 ± 0.22 µM | 0.46 ± 0.09 µM | – | – | – | – | –
CC(=C/C(=O)O)/C=C/C1(O)CC(C)(C)C(=O)c2cc(OCCC(C)CC(C)(C)C)ccc21 (centres unmarked) [APA14] | 60.8 ± 9.02 µM | 45.5 ± 2.47 µM | 5.18 ± 0.84 µM | 2.55 ± 0.46 µM | 0.11 ± 0.01 µM | – | – | – | – | –
CC(=C/C(=O)O)/C=C/C1(O)CC(C)(C)C(=O)c2cc(OCCC(C)CCCC(C)C)ccc21 (centres unmarked) [APA15] | 37.9 ± 3.09 µM | 36.3 ± 2.18 µM | 7.95 ± 1.66 µM | 1.99 ± 0.32 µM | 2.04 ± 0.29 µM | – | – | – | – | –
CC(C)=CCCC(C)CCOc1ccc2c(c1)C(=O)C(C)(C)CC2(O)/C=C/C(C)=C\C(=O)O (centres unmarked) [APA16] | 53.4 ± 4.71 µM | 65 ± 2.76 µM | 7.84 ± 0.95 µM | 2.1 ± 0.31 µM | 5.84 ± 0.24 µM | – | – | – | – | –
CCOCCOc1ccc2c(c1)C(=O)C(C)(C)CC2(O)/C=C/C(C)=C\C(=O)O (centres unmarked) [APA17] | 42.2 ± 6.71 µM | 23.9 ± 2.68 µM | 19 ± 2.1 µM | 13.1 ± 1.46 µM | 7.07 ± 0.21 µM | – | – | – | – | –
COCCOCCOc1ccc2c(c1)C(=O)C(C)(C)CC2(O)/C=C/C(C)=C\C(=O)O (centres unmarked) [APA18] | 73.9 ± 5.28 µM | 37.5 ± 2.83 µM | 9.33 ± 1.39 µM | 4.17 ± 0.93 µM | 0.14 ± 0.02 µM | – | – | – | – | –
CC1=CC(=O)CC(C)(C)[C@@]1(O)/C=C/C(C)=C\C(=O)O [compound 1, ABA] | 188 ± 29 µM | 152 ± 31 µM | – | 19.5 ± 3.92 µM | 16.2 ± 4.84 µM | – | – | – | – | –
iso-PhABA | – | – | – | – | – | 187 ± 22.3 µM | 92 ± 5.13 µM | 16.3 ± 2.78 µM | 6.77 ± 0.32 µM | 7.54 ± 2.36 µM
